Test results from patent US6211212A, “Pyrrolidine and thiazole derivatives with metallo-beta-lactamase inhibitory properties” (SmithKline Beecham p.l.c., priority 1997, dated 2001).

Target: B.fragilis CfiA metallo-β-lactamase (Bacteroides fragilis, UniProt P25910)
Test: I50 screen (nitrocefin reporter substrate)
Type: biochemical
Details: 25 μM PIPES pH 7, 37° C., nitrocefin 91 μM, 5 minute preincubation, Zn2+ 100 μM
Procedure: The inhibitory activity of the compounds of the invention was measured in 25 μM PIPES pH 7 buffer at 10 concentrations (1000, 333, 111, 37, 12.3, 4.1, 1.4, 0.46, 0.15 and 0.05 μM) at 37° C. using nitrocefin (91 μM final concentration) as the reporter substrate. The assays were performed with a 5 minute preincubation of enzyme and inhibitor and were conducted in the presence of added zinc sulphate (Zn^2+ 100 μM, final concentration). The methodology is described in detail in the following references: Payne et al (1991), J. Antimicrob. Chemother., 28:255; Payne et al (1994), Antimicrob. Agents and Chemother., 38:767.

Sequence of B.fragilis CfiA metallo-β-lactamase (P25910 19-249): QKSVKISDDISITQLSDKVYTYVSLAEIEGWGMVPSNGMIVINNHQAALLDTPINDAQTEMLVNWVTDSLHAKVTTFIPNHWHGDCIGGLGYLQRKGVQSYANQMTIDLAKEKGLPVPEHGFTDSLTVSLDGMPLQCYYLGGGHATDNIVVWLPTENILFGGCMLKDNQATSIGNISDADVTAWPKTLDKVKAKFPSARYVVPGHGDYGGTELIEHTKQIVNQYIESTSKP

IC50: < 1000 nM
Structure (SMILES): O=C(N[C@@H](C(=O)O)c1ccccc1)[C@H]1CCCC[C@H]1S (mixture of isomers) [Example E3, N-[2-(R,S)-Mercapto-1-(R,S)-cyclohexancarbonyl]-D-phenylglycine]
